Blank lines part the entries; values can stand above or below the compound they belong to.
Legend:
[1] = tested on: cerebellar granule cells (CGC); experiment: Antiapoptotic capacity (rescue) in cerebellar granule cells induced into apoptosis by cytosine arabinoside (CGC assay); format: cell-based, Wistar rat
Description: In Vitro Protocol for Assessing the Antiapoptotic Capacity of Various Compounds in Cerebellar Granule Cells
Cultures of cerebellar granule cells (CGC) can be induced into apoptosis by the addition of a high concentration of cytosine arabinoside (AraC). It has been shown that this is a p53 dependent apoptosis. We have measured the antiapoptotic effect of some amino acids, amino esters, amino phosphonic acids, amino nitriles and amino tetrazoles using this system.
Cultures of CGC were obtained from 6-8 day old Wistar rat pups. Cultures were grown on glass in 35 mm petri dishes for three days and then used for experiments. Aliquots (20 ul) of drug solutions (AraC, anti-apoptotic drugs, drug vehicles) were added to the medium of the culture. 24 Hours later the cultures were fixed with FAM, and stained with bis-benzamide. Normal and apoptotic nuclei were counted to a total of 90-120 cells per culture.

[2] = compound 10^−9 M, AraC 300 uM-induced apoptosis, 24 hours
[3] = compound 10^−12 M, AraC 300 uM-induced apoptosis, 24 hours
[4] = overall over 10^−6, 10^−9, 10^−12 M
[5] = compound 10^−6 M, AraC 300 uM-induced apoptosis, 24 hours

Structure (SMILES): CCC(C)(C)NCCC#N.Cl [tert-Amyl (Propionitriles), 3-(t-Amylamino)propionitrile hydrochloride]
melting point: 199 to 200 °C
Rescue by Amino Nitriles in the CGC Assay, Rescue (overall yes/no) [1, 4]: no

Structure (SMILES): CC(C)NCC#N.Cl [2-Propyl (Acetonitriles), 2-(2-Propylamino)acetonitrile hydrochloride]
melting point: 166 to 167 °C
Rescue by Amino Nitriles in the CGC Assay, 10^−6 M [1, 5]: R
Rescue by Amino Nitriles in the CGC Assay, 10^−9 M [1, 2]: R
Rescue by Amino Nitriles in the CGC Assay, 10^−12 M [1, 3]: R
Rescue by Amino Nitriles in the CGC Assay, Rescue (overall yes/no) [1, 4]: yes

Structure (SMILES): CCCCCCNCCC(=O)O [1-Hexyl (B-Alanines), 3(1-Hexylamino)propionic acid]
melting point: 95 to 97 °C
Rescue by Amino Acids and Esters in the CGC Assay, 10^−6 M [1, 5]: R
Rescue by Amino Acids and Esters in the CGC Assay, 10^−9 M [1, 2]: R
Rescue by Amino Acids and Esters in the CGC Assay, 10^−12 M [1, 3]: R
Rescue by Amino Acids and Esters in the CGC Assay, Rescue (overall yes/no) [1, 4]: yes

Structure (SMILES): CC(C)N(C)CCC#N.Cl [2-Propyl-N-methyl (Propionitriles), 3-(2-Propylmethylamino)propionitrile hydrochloride]
melting point: 121 to 121.5 °C
Rescue by Amino Nitriles in the CGC Assay, Rescue (overall yes/no) [1, 4]: no

Structure (SMILES): CC(C)NCCC(=O)O.Cl [2-Propyl (B-Alanines), 3-(2-Propylamino)propionic acid hydrochloride]
melting point: 154 to 155 °C
Rescue by Amino Acids and Esters in the CGC Assay, 10^−9 M [1, 2]: R
Rescue by Amino Acids and Esters in the CGC Assay, 10^−12 M [1, 3]: R
Rescue by Amino Acids and Esters in the CGC Assay, Rescue (overall yes/no) [1, 4]: yes

Structure (SMILES): CC(C)NCCP(=O)(O)O.Cl [2-Propyl (Amino Phosphonic Acids), 2-(2-Propylamino)ethanephosphonic acid hydrochloride]
melting point: 164 to 166 °C
Rescue by Amino Phosphonic Acids in the CGC Assay, 10^−6 M [1, 5]: R
Rescue by Amino Phosphonic Acids in the CGC Assay, 10^−9 M [1, 2]: R
Rescue by Amino Phosphonic Acids in the CGC Assay, 10^−12 M [1, 3]: R
Rescue by Amino Phosphonic Acids in the CGC Assay, Rescue (overall yes/no) [1, 4]: yes

More lines, main results first:

melting point: 140 °C
Structure (SMILES): CCCCC[C@H](C)NCC#N.Cl [S-2-Heptyl (Acetonitriles), (S)-2-(2-Heptylamino)acetonitrile hydrochloride]
Rescue by Amino Nitriles in the CGC Assay, 10^−9 M [1, 2]: R
Rescue by Amino Nitriles in the CGC Assay, 10^−12 M [1, 3]: R
Rescue by Amino Nitriles in the CGC Assay, Rescue (overall yes/no) [1, 4]: yes

melting point: 188 to 189 °C
Structure (SMILES): CCCCCCNCCC#N.Cl [1-Hexyl (Propionitriles), 3-(1-Hexylamino)propionitrile hydrochloride]
Rescue by Amino Nitriles in the CGC Assay, Rescue (overall yes/no) [1, 4]: no

melting point: 133 to 134 °C
Structure (SMILES): CCCCC[C@H](C)NCCC#N.Cl [S-2-heptyl (Propionitriles), (S)-3-(2-Heptylamino)propionitrile hydrochloride]
Rescue by Amino Nitriles in the CGC Assay, Rescue (overall yes/no) [1, 4]: no

melting point: 56 to 58 °C
Structure (SMILES): CCCCC[C@H](C)NCCC(=O)O.Cl [S-2-Heptyl (B-Alanines), (S)-3-(2-Heptylamino)propionic acid hydrochloride]
Rescue by Amino Acids and Esters in the CGC Assay, Rescue (overall yes/no) [1, 4]: no

melting point: 118.5 to 119.5 °C
Structure (SMILES): CCC(CC)NCCC#N.Cl [3-Pentyl (Propionitriles), 3-(3-Pentylamino)propionitrile hydrochloride]
Rescue by Amino Nitriles in the CGC Assay, 10^−6 M [1, 5]: R
Rescue by Amino Nitriles in the CGC Assay, 10^−9 M [1, 2]: R
Rescue by Amino Nitriles in the CGC Assay, Rescue (overall yes/no) [1, 4]: yes

Source: patent US6984754B1, “Aliphatic amino carboxylic and amino phosphonic acids amino nitriles and amino tetrazoles as cellular rescue agents” (University of Saskatchewan Technologies Inc., priority 1998, dated 2006)
